The subject of the experiment is test plant species. The experiment can be described thus: Post-emergent herbicidal activity test (greenhouse, foliar spray, visual growth reduction). The class given is in vivo. As to conditions: post-emergence, 336 h, 140 g ai/ha. Summed up:
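Seedlings were raised 7-21 d in a greenhouse under a 15 h photoperiod until the first or second true leaf. Each compound, dissolved in acetone:DMSO 97:3 and diluted into a surfactant-containing spray mixture, was then applied at 187 L/ha. Plants were subirrigated, and growth reduction was scored visually at 14 d.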

Where [1] appears, read: ECHCG: barnyardgrass (Echinochloa crus-galli), 14 days after application, read-out: Visual Growth Reduction (%) 14 Days After Application, ECHCG.
The mark [2] stands for this setting: IPOHE: ivy-leaf morning glory (Ipomoea hederacea), 14 days after application, read-out: Visual Growth Reduction (%) 14 Days After Application, IPOHE.
The mark [3] stands for this setting: KCHSC: kochia (Bassia scoparia), 14 days after application, read-out: Visual Growth Reduction (%) 14 Days After Application, KCHSC.
[4] abbreviates: ORYSA: rice (Oryza sativa), 14 days after application, read-out: Visual Growth Reduction (%) 14 Days After Application, ORYSA.
[5] abbreviates: SETFA: giant foxtail (Setaria faberi), 14 days after application, read-out: Visual Growth Reduction (%) 14 Days After Application, SETFA.
The mark [6] stands for this setting: SORVU: grain sorghum (Sorghum vulgare), 14 days after application, read-out: Visual Growth Reduction (%) 14 Days After Application, SORVU.
Setting [7] is: STEME: common chickweed (Stellaria media), 14 days after application, read-out: Visual Growth Reduction (%) 14 Days After Application, STEME.
Where [8] appears, read: TRZAS: wheat, spring (Triticum aestivum), 14 days after application, read-out: Visual Growth Reduction (%) 14 Days After Application, TRZAS.
The mark [9] stands for this setting: blackgrass (Alopecurus myosuroides), 14 Days After Application, read-out: Visual Growth Reduction (%) ALOMY.
Setting [10] is: canada thistle (Cirsium arvense), 14 Days After Application, read-out: Visual Growth Reduction (%) CIRAR.
[11] abbreviates: crabgrass (Digitaria sanguinalis), 14 Days After Application, read-out: Visual Growth Reduction (%) DIGSA.
Setting [12] is: lambsquarters (Chenopodium album), 14 Days After Application, read-out: Visual Growth Reduction (%) CHEAL.
[13] abbreviates: redroot pigweed (Amaranthus retroflexus), 14 Days After Application, read-out: Visual Growth Reduction (%) AMARE.
Setting [14] is: wild oat (Avena fatua), 14 Days After Application, read-out: Visual Growth Reduction (%) AVEFA.
[15] abbreviates: yellow nutsedge (Cyperus esculentus), 14 Days After Application, read-out: Visual Growth Reduction (%) CYPES.

The text below walks through data of patent US20230017045A1, “PYRIDINE AND PYRIMIDINE CARBOXYLATE HERBICIDES AND METHODS OF USE THEREOF” (Dow AgroSciences LLC, priority 2017, published 2023).

Like-named read-outs stand apart in the source and are kept apart here.

As for `COC(=O)c1nc(-c2ccc(Cl)c(C(F)F)c2Cl)ccc1Cl` [F281, Methyl 3-chloro-6-(2,4-dichloro-3-(difluoromethyl)phenyl)picolinate], the pest or weed control at 140 g/ha fell in the range of 0 to 29% under setting [1]; 85 to 94% under setting [2]; 0 to 29% under setting [3]; 0 to 29% under setting [4]; 30 to 44% under setting [5]; 85 to 94% under setting [6]. Also, the pest or weed control at 140 g/ha under setting [7] was in the range of 0 to 29%; the pest or weed control at 140 g/ha under setting [8] lay within 0 to 29%; the pest or weed control at 140 g/ha under setting [9] is 0 to 29%; the pest or weed control at 140 g/ha under setting [10] is 0 to 29%; the pest or weed control at 140 g/ha under setting [11] fell in the range of 0 to 29%; the pest or weed control at 140 g/ha under setting [12] was 85 to 94%. Besides, the pest or weed control at 140 g/ha was 75 to 84% under setting [13], 0 to 29% under setting [14] and 0 to 29% under setting [15].
As for `COC(=O)c1nc(-c2ccc(Cl)c(C(C)F)c2Cl)ccc1Cl` (stereo not drawn) [F282, Methyl 3-chloro-6-(2,4-dichloro-3-(1-fluoroethyl)phenyl) picolinate], the pest or weed control at 140 g/ha by setting is: under setting [1], 0 to 29%; under setting [2], 45 to 59%; under setting [3], 0 to 29%; under setting [4], 0 to 29%; under setting [5], 0 to 29%; under setting [6], 0 to 29%. Besides, the pest or weed control at 140 g/ha runs as follows: under setting [7], 0 to 29%; under setting [8], 0 to 29%; under setting [9], 0 to 29%; under setting [10], 60 to 74%; under setting [11], 0 to 29%; under setting [12], 85 to 94%. The pest or weed control at 140 g/ha under setting [13] lay in the range of 45 to 59%, the pest or weed control at 140 g/ha under setting [14] was in the range of 0 to 29% and the pest or weed control at 140 g/ha under setting [15] is 0 to 29%.
Regarding `CCCCOC(=O)c1nc(-c2ccc(Br)c(OC)c2F)ccc1Cl` [F283, Butyl 6-(4-bromo-2-fluoro-3-methoxyphenyl)-3-chloropicolinate], the pest or weed control at 140 g/ha is, setting by setting: under setting [1], 0 to 29%; under setting [2], 0 to 29%; under setting [3], 75 to 84%; under setting [4], 0 to 29%; under setting [5], 0 to 29%; under setting [6], 0 to 29%. In addition, the pest or weed control at 140 g/ha was in the range of 0 to 29% under setting [7]; 0 to 29% under setting [8]; 0 to 29% under setting [9]; 85 to 94% under setting [10]; 0 to 29% under setting [11]; 85 to 94% under setting [12]. The pest or weed control at 140 g/ha by setting is: under setting [13], 30 to 44%; under setting [14], 0 to 29%; under setting [15], 30 to 44%.
Take `COC(=O)c1nc(-c2ccc(Cl)nc2Cl)ccc1Cl` [F284, Methyl 2′,5,6′-trichloro-[2,3′-bipyridine]-6-carboxylate]: the pest or weed control at 140 g/ha was in the range of 0 to 29% under setting [1]; 60 to 74% under setting [2]; 0 to 29% under setting [3]; 0 to 29% under setting [4]; 0 to 29% under setting [5]; 85 to 94% under setting [6]. Also, the pest or weed control at 140 g/ha under setting [7] lay within 0 to 29%; the pest or weed control at 140 g/ha under setting [8] lay in the range of 0 to 29%; the pest or weed control at 140 g/ha under setting [9] was 0 to 29%; the pest or weed control at 140 g/ha under setting [10] is 30 to 44%; the pest or weed control at 140 g/ha under setting [11] fell in the range of 0 to 29%; the pest or weed control at 140 g/ha under setting [12] was in the range of 0 to 29%. Moreover, the pest or weed control at 140 g/ha by setting is: under setting [13], 0 to 29%; under setting [14], 0 to 29%; under setting [15], 0 to 29%.
